Data from PubChem BioAssay AID2384 (Southern Research Specialized Biocontainment Screening …, 2010).
“And” between values parts separate entries of the source, which are not always exact repeats. Equal entries are not always repeated.

Test system: S. typhi GFP reporter counter-screen, fluorescence, 4 h
Test: inhibitors in S. typhi counter-screen strain, dose response, counter-screen for PhoP regulon inhibitor project, fluorescence, 4 h (AID 2384)

Q: Which IC50 does the source give for `NC(=O)SCC(=O)Nc1cccc(Cl)c1` here?
A: The IC50 was 60.9 µM.

Q: Which IC50 does the source give for `O=[N+]([O-])/C=C/c1cc2ccccc2[nH]1` here?
A: The IC50 was 36.9 µM.

Q: With `Cc1ccc2nc(/C(C#N)=C\c3ccc([N+](=O)[O-])o3)[nH]c2c1` as the compound, how does the IC50 read?
A: The IC50 was 95.9 µM.

Q: For `CC(Oc1ccc(Br)cc1)c1nc2c3ccccc3nc(=S)n2[nH]1` (configuration not stated), which IC50 is on record?
A: The IC50 was 139 µM.

Q: With `Cc1[nH]cnc1C(=O)N/N=C/c1ccc([N+](=O)[O-])s1` as the compound, how does the IC50 read?
A: The IC50 was 37.2 µM.

Q: With `Cc1cc(Br)ccc1OCCCCNCCO` as the compound, how does the IC50 read?
A: The IC50 was 30.7 µM.

Q: For `CN1CCN(C2=Cc3ccccc3Sc3cc(F)c(Cl)cc32)CC1`, which IC50 is on record?
A: Its IC50 is 27 µM.

Q: `S=C(NCc1ccc(Cl)cc1)Nc1ccncc1` was tested. Which IC50 did it give?
A: Its IC50 is 35 µM.

Q: `Oc1c(Cl)cc(CN2CCCCC2)c2cccnc12` was tested. Which IC50 did it give?
A: The IC50 was 9.15 µM.

Q: Which IC50 does the source give for `CCOc1cc(CNCCCN2CCOCC2)cc(Br)c1OCC(=O)Nc1cccc(C(F)(F)F)c1` here?
A: The IC50 was 47.1 µM.

Q: How did the IC50 turn out when `C/C(=N/Nc1ccnc2cc(Cl)ccc12)c1ccc(N)cc1` was run?
A: The IC50 was 73.9 µM.

Q: How did the IC50 turn out when `Clc1ccc(Nc2ccc(NCc3ccccc3)nn2)cc1` was run?
A: Its IC50 is 90.7 µM.

Q: With `O=Nc1c(O)c2ccccc2c2ccccc12` as the compound, how does the IC50 read?
A: Its IC50 is 37.7 µM.

Q: `c1ccc2cc3c(NCCN4CCOCC4)ccnc3cc2c1` was tested. Which IC50 did it give?
A: The IC50 was 88.2 µM.

Q: How did the IC50 turn out when `CCCCCCCCCC[N+](C)(C)CC/C=C1/c2ccccc2Sc2ccc(Cl)cc21` was run?
A: The IC50 was 14 µM.

Q: How did the IC50 turn out when `O=Nc1ccc(O)c2ncccc12` was run?
A: Its IC50 is 20 µM.

Q: How did the IC50 turn out when `C=CC1=C(C(=O)O)N2C(=O)[C@@H](NC(=O)/C(=N/OCC(=O)O)c3csc(N)n3)[C@H]2SC1` was run?
A: Its IC50 is 16.5 µM.

Q: `O=C(Nc1nnc(-c2cccs2)o1)c1cccc(C(F)(F)F)c1` was tested. Which IC50 did it give?
A: The IC50 was 26.4 µM.

Q: With `CCCCCC(=O)NC(=S)NNC(=O)CC` as the compound, how does the IC50 read?
A: The IC50 was 68.8 µM.

Q: How did the IC50 turn out when `CSc1ccc2c(c1)C(N1CCN(C)CC1)Cc1ccc(F)cc1S2` (configuration not stated) was run?
A: The IC50 was 23.9 µM.

Q: For `Clc1ccc(C(c2ccccc2)N2CCNCC2)cc1` (configuration not stated), which IC50 is on record?
A: The IC50 was 97.5 µM.

Q: How did the IC50 turn out when `CN1CCN(CCCN2c3ccccc3Sc3ccc(Cl)cc32)CC1` was run?
A: Its IC50 is 41.7 µM and 23.8 µM.

Q: For `Fc1ccc(Nc2c3c(nc4ccccc24)CCC3)cc1`, which IC50 is on record?
A: The IC50 was 47 µM.

Q: Which IC50 does the source give for `CC1CCc2cc(F)cc3c(=O)c(C(=O)O)cn1c23` (configuration not stated) here?
A: The IC50 was 15.6 µM.

Q: `COc1ccc(CNCC(O)COc2ccc(C)cc2[N+](=O)[O-])cc1` (configuration not stated) was tested. Which IC50 did it give?
A: Its IC50 is 128 µM.

Q: `CN(C)CCCNc1c2ccccc2nc2ccccc12` was tested. Which IC50 did it give?
A: The IC50 was 40.7 µM.

Q: `Cc1ccc(C(C[N+](=O)[O-])Sc2ccc(N)cc2)cc1` (configuration not stated) was tested. Which IC50 did it give?
A: Its IC50 is 26.7 µM.

Q: For `CC(=O)Oc1ccccc1C(=O)Nc1ncc([N+](=O)[O-])s1`, which IC50 is on record?
A: The IC50 was 92 µM.

Q: For `O=C(N/N=C/c1c[nH]c2ccccc12)c1ccc(Cl)cc1`, which IC50 is on record?
A: The IC50 was 91.6 µM.

Q: For `CN1CCC(OC(=O)c2ccc(Cl)cc2Cl)CC1`, which IC50 is on record?
A: Its IC50 is 36.8 µM.

Q: For `CC1CC(C)CN(CCOc2ccc(Cl)cc2Cl)C1` (configuration not stated), which IC50 is on record?
A: The IC50 was 88.2 µM.

Q: `C#CCOCCOCCOCCNc1nc(N2CCN(C(=O)[C@H](Cc3ccc(O)cc3)n3cc([C@@H](N)CC(C)C)nn3)CC2)nc(N2CCN(C(=O)[C@H](Cc3ccc(O)cc3)n3cc([C@@H](N)CC(C)C)nn3)CC2)n1` was tested. Which IC50 did it give?
A: The IC50 was 80 µM.

Q: `CO[C@@]1(NC(=O)C2SC(=C(C(N)=O)C(=O)O)S2)C(=O)N2C(C(=O)O)=C(CSc3nnnn3C)CS[C@@H]21` (some centres not stated) was tested. Which IC50 did it give?
A: Its IC50 is 10.3 µM.

Q: With `CC1CCC(C(C)C)C(OC(=O)C[n+]2cc(-c3ccc(Cl)cc3)n3c2CCC3)C1` (configuration not stated) as the compound, how does the IC50 read?
A: Its IC50 is 40.3 µM.

Q: For `COC(=O)C(C)NC(=S)N1CCN(c2c(F)cc3c(=O)c(C(=O)O)cn(C4CC4)c3c2OC)CC1C` (configuration not stated), which IC50 is on record?
A: The IC50 was 39.6 µM.

Q: For `O=C(N/N=C/c1ccccn1)c1ccc(Br)o1`, which IC50 is on record?
A: Its IC50 is 45.1 µM.

Q: `OCCNc1nc(Nc2ccccc2)nc2ccccc12` was tested. Which IC50 did it give?
A: The IC50 was 22.4 µM.

Q: How did the IC50 turn out when `CO[C@@]1(NC(=O)Cc2cccs2)C(=O)N2C(C(=O)O)=C(COC(N)=O)CS[C@@H]21` was run?
A: The IC50 was 7.08 µM.

Q: With `CC1CCN(CCC(=O)Nc2ccc(Cl)cc2)CC1` as the compound, how does the IC50 read?
A: The IC50 was 105 µM.

Q: With `Cc1ccc(-c2csc(N=C(N)N)n2)c(C)c1` as the compound, how does the IC50 read?
A: Its IC50 is 46.3 µM.

Q: Which IC50 does the source give for `Cc1ccc(-c2c[n+](Cc3ccc(Cl)cc3)c3n2CCC3)cc1` here?
A: Its IC50 is 46 µM.

Q: With `CCCCCCCCCCOC(=O)C[N+](C)(C)CC1CCCCC1O` (configuration not stated) as the compound, how does the IC50 read?
A: The IC50 was 37.6 µM.

Q: `Cc1cccc(Nc2nc(NCc3ccco3)c3ccccc3n2)c1` was tested. Which IC50 did it give?
A: The IC50 was 14 µM.

Q: How did the IC50 turn out when `CC1CCc2c(N3CCC(O)CC3)c(F)cc3c(=O)c(C(=O)O)cn1c23` (configuration not stated) was run?
A: Its IC50 is 18.9 µM.

Q: For `CC[C@H]1OC(=O)C[C@@H](O)[C@H](C)[C@@H](O[C@@H]2O[C@H](C)C[C@H](N(C)C)[C@H]2O)[C@@H](CC=O)C[C@@H](C)C(=O)C=C[C@]2(C)O[C@H]2[C@@H]1C`, which IC50 is on record?
A: Its IC50 is 3.95 µM.

Q: Which IC50 does the source give for `COc1ccc(/C=N/Nc2cc(C)nc3ccc(Br)cc23)cc1` here?
A: The IC50 was 36.4 µM.

Q: `O=C(CC1NCCc2ccccc21)Nc1ccc(Oc2ccccc2)cc1` (configuration not stated) was tested. Which IC50 did it give?
A: The IC50 was 51 µM.

Q: Which IC50 does the source give for `CC(C)C1N=C(c2ccc3c(c2)OCO3)CC(c2ccccc2O)N1` (configuration not stated) here?
A: The IC50 was 117 µM.

Q: `CN1CCC(OC(=O)c2cccc(Br)c2)CC1` was tested. Which IC50 did it give?
A: The IC50 was 55.9 µM.

Q: How did the IC50 turn out when `Cc1ccc(NC(=O)c2ccccc2)s1` was run?
A: Its IC50 is 110 µM.

Q: How did the IC50 turn out when `CCCCCCCCCCn1c2c(c(=N)c3c1CCC3)CCC2` was run?
A: Its IC50 is 9.77 µM.

Q: How did the IC50 turn out when `CN(C)CCN(C(=O)C1=COCCO1)c1nc2ccc(Cl)cc2s1` was run?
A: The IC50 was 49.5 µM.

Q: `C1=C(CCNCc2ccccc2)CCCC1` was tested. Which IC50 did it give?
A: The IC50 was 16.8 µM.

Q: For `O=S(=O)(Nc1c(S(=O)(=O)c2ccccc2)c2nc3ccccc3nc2n1C1CCCCC1)c1ccccc1`, which IC50 is on record?
A: Its IC50 is 5.67 µM.

Q: With `Cc1ccc(C(=O)NNC(=S)NC(=O)c2ccccc2)cc1` as the compound, how does the IC50 read?
A: The IC50 was 57.8 µM.

Q: `O=c1c2c([nH]c3ccccc13)CCCCC2` was tested. Which IC50 did it give?
A: The IC50 was 113 µM.

Q: `Cc1ccc(C(c2cc(Cl)c3cccnc3c2O)N2CCN(C)CC2)cc1` (configuration not stated) was tested. Which IC50 did it give?
A: Its IC50 is 30.4 µM.

Q: How did the IC50 turn out when `CCOc1ccc(Nc2nc(N)c3ccccc3n2)cc1` was run?
A: The IC50 was 44.4 µM.

Q: `O=C(/C=C/c1ccccc1)c1ccc(NC2=NCCCS2)cc1` was tested. Which IC50 did it give?
A: Its IC50 is 67.3 µM.

Q: For `Cc1ccc(NC(=O)CN(C)C2CCCCC2)cc1Br`, which IC50 is on record?
A: Its IC50 is 41.6 µM.

Q: Which IC50 does the source give for `CCCCn1c(NS(=O)(=O)c2ccccc2)c(C(=O)OCC)c2nc3ccccc3nc21` here?
A: The IC50 was 58.9 µM.

Q: How did the IC50 turn out when `O=C(Nc1nc(-c2ccccn2)cs1)c1ccc(Br)s1` was run?
A: Its IC50 is 14.5 µM.

Q: Which IC50 does the source give for `COc1nsnc1NS(=O)(=O)c1ccc(NC(=S)NC(=O)c2cccnc2)cc1` here?
A: The IC50 was 68.5 µM.

Q: With `CCn1cc(C(=O)O)c(=O)c2cc(F)c(N3CCNCC3)cc21` as the compound, how does the IC50 read?
A: Its IC50 is 0.49 µM.

Q: With `COc1cc(/C=C2/C(=O)NN(c3ccc(F)cc3)C2=O)cc([N+](=O)[O-])c1O` as the compound, how does the IC50 read?
A: The IC50 was 62.6 µM.

Q: Which IC50 does the source give for `OCCN1CCN(C2Cc3cc(Cl)ccc3Sc3ccc(Cl)cc32)CC1` (configuration not stated) (tested in a mixture with another compound) here?
A: Its IC50 is 25.9 µM.

Q: `CCCCCSc1cc(OC)c(CCNC)cc1OC` was tested. Which IC50 did it give?
A: The IC50 was 52.2 µM.

Q: How did the IC50 turn out when `COc1cc(Br)cc(C=Nc2cccc(C(F)(F)F)c2)c1O` was run?
A: Its IC50 is 73.8 µM.

Q: Which IC50 does the source give for `CCc1ccc(NC(=O)Nc2ccncc2)cc1` here?
A: The IC50 was 88.4 µM.

Q: How did the IC50 turn out when `COc1cc([N+](=O)[O-])cc(/C=N/NC(=O)C(O)(c2ccccc2)c2ccccc2)c1O` was run?
A: Its IC50 is 80 µM.

Q: With `CCOC(=O)Cn1c(=N)n(CCOc2ccc3ccccc3c2)c2ccccc21` as the compound, how does the IC50 read?
A: Its IC50 is 37.2 µM.

Q: `Cc1cc(O)c2c(c1)C(=O)C13C(=C2O)C(=O)[C@H]2[C@@H](O)[C@@H]1[C@H]1[C@H](O)[C@@H]3C(=O)C3=C(O)c4c(O)cc(C)cc4C(=O)C312` (some centres not stated) was tested. Which IC50 did it give?
A: Its IC50 is 7.46 µM.

Q: Which IC50 does the source give for `COc1ccc(C(=O)NC(=S)NNC(=O)CCc2ccccc2)cc1` here?
A: The IC50 was 138 µM.

Q: With `O=C(N/N=C/c1ccc([N+](=O)[O-])s1)c1ccccc1Br` as the compound, how does the IC50 read?
A: Its IC50 is 77.5 µM.

Q: With `CC1(CC(=O)N/N=C/c2cc([N+](=O)[O-])c(O)cc2O)OCCO1` as the compound, how does the IC50 read?
A: The IC50 was 74 µM.

Q: How did the IC50 turn out when `COc1cc(/C=N/NC(=O)c2cncc(Br)c2)cc([N+](=O)[O-])c1O` was run?
A: Its IC50 is 19.1 µM.

Q: `N/C(=N\N=C/c1ccc(F)cc1)N/N=C\c1ccc(F)cc1` was tested. Which IC50 did it give?
A: The IC50 was 38.6 µM.

Q: For `O=C(Nc1cccc(C2=NCCN2)c1)Nc1cccc(C2=NCCN2)c1`, which IC50 is on record?
A: The IC50 was 44.8 µM.

Q: Which IC50 does the source give for `Cc1ccc(C(=O)NNC(=S)NC(=O)COc2ccccc2)cc1` here?
A: The IC50 was 63.9 µM.

Q: For `CC1=NN(c2nc3ccccc3[nH]2)C(=O)C1Cc1ccccc1` (configuration not stated), which IC50 is on record?
A: The IC50 was 34.2 µM.

Q: Which IC50 does the source give for `COc1ccc(NC(=O)c2[nH]ncc2[N+](=O)[O-])cc1` here?
A: Its IC50 is 133 µM.

Q: With `CCCOc1ccc(C(=O)NNC(=S)NC(=O)CC)cc1` as the compound, how does the IC50 read?
A: The IC50 was 28.7 µM.
